Results as given in patent publication US20040002117A1 (priority 1998, published 2004).
Blank lines part the entries; values can stand above or below the compound they belong to.

Key:
[1] = molecular target: T1, recombinant human calcineurin catalytic domain, calcineurin(2-347) (Homo sapiens, UniProt Q08209, L343A/M347D/Y341S); test: fluorescence polarization competition assay, displacement of OG-VIVIT from calcineurin; format: binding; details: for displacement of OG-VIVIT from calcineurin: at high concentrations, 1 μM calcineurin, 60 nM OG-VIVIT; for IC50: calcineurin-VIVIT peptide interaction, read-out: Estimated IC50
T1 construct: GST (N, cleaved yes); made in house; host or cells: E. coli strain DH5α
Protocol: Samples were analyzed as described in the preceding paragraph, and the resulting polarization data were plotted against the concentration of unlabelled VIVIT peptide, as shown in FIG. 8B.
The library stocks were dissolved at a nominal concentration of 10 mM in DMSO, and formatted for convenient robotic transfer on 384-well plates at the Institute of Chemistry and Cell Biology, Harvard Medical School. To initiate the competition assay, 40 nl volumes were pin-transferred from each well of a library stock plate to the corresponding wells of an assay plate, utilizing a robotic device. After a minimum 10 min incubation at room temperature to allow the binding to reach equilibrium, fluorescence polarization data were collected employing an Analyst plate reader (Molecular Devices).
Stocks of candidate inhibitor compounds and their structural analogues were purchased from ChemBridge or Asinex. The structure and purity of individual compounds were verified by ^1H NMR, mass spectrometry, or thin-layer chromatography. […] INCA1, INCA2, and INCA6 can be represented generally as follows: […]

[2] = molecular target: calcineurin (Homo sapiens, UniProt Q08209, L343A/M347D/Y341S); test: 1H NMR titration spectroscopy binding experiments; details: 10 μM compound, 20 μM calcineurin, 25° C., buffered D2O
Protocol: T2-filtered ^1H NMR spectra were obtained on a Bruker Avance 600 instrument with CryoPhobe using low-power presaturation of residual water. Preacquisition delays included up to five spin echos to suppress fast-relaxing broad protein resonances and were times to yield in-phase signals for J-coupled spins. Chemical shifts were referenced to internal standard 5 μM 2,2-dimethylsilapentane-5-sulfonic acid (DSS).

[3] = molecular target: T2, calcineurin (Homo sapiens, UniProt Q08209); test: dephosphorylation of GST-Tau protein by calcineurin; format: biochemical
[4] = molecular target: T2, calcineurin; test: in vitro dephosphorylation of recombinant 32P-labelled RIIα protein by calcineurin; format: biochemical
[5] = molecular target: T2, calcineurin; test: dephosphorylation of 32P-RII phosphopeptide by calcineurin; format: biochemical; details: 32P-RII phosphopeptide 100 μM, calcineurin 100 nM; peptides 30 μM to 400 μM; FK506/FKBP12 10 μM/10 μM
Protocol: The dephosphorylation reaction was allowed to proceed for 30 min at 30° C. after which the reaction was stopped by addition of excess 0.1% trichloroacetic acid, substrate peptide was removed by adsorption onto a cation exchange resin (AG50W; BioRad Laboratories, Hercules, Calif.), and released ^32P label in the supernatant was measured in a liquid scintillation counter.

[6] = molecular target: T3, dephosphorylation of NFAT1 by calcineurin (Homo sapiens, UniProt Q08209); test: in vitro dephosphorylation of NFAT1(1-460)-GFP by calcineurin in HeLa cytosolic extracts, Western blotting; format: biochemical
Protocol: Samples were resolved by SDS-PAGE and dephosphorylation was assessed with anti-HA antibody 12CA5. […] Slightly higher concentrations of the peptides were required to inhibit the in vitro dephosphorylation than were required to inhibit NFAT-calcineurin binding, presumably due to some degradation of the peptides by enzymes present in the cell extracts.

[7] = molecular target: T4, dephosphorylation of NFAT by calcineurin (Homo sapiens, UniProt Q08209); test: calcineurin-mediated dephosphorylation of HA-NFAT1(1-460)-GFP in HeLa cell lysates; format: biochemical; details: 200 nM calcineurin, 600 nM calmodulin, 30 min at 30 C.; peptide amounts as in FIG. 5B
[8] = molecular target: T3, dephosphorylation of NFAT1 by calcineurin; test: dephosphorylation of HA-NFAT1(1-460)-GFP in HEK-293 cytosolic extracts by calcineurin/calmodulin; format: biochemical; details: wild type 13-mer 100 μM or 400 μM; mutant 400 μM; calcineurin/calmodulin 100 nM to 900 nM
Protocol: (§1) The HA-tagged N-terminal domains of NFAT1 and NFAT4 were expressed as the fusion proteins HA-NFAT1(1-460)-GFP and HA-NFAT4(1-407)-GFP in HEK-293 cells. […] Dephosphorylation was allowed to proceed for 30 min at 30° C., and samples were analyzed by SDS-PAGE and Western blotting with anti-HA antibody.

[9] = molecular target: calcineurin binding to GST-NFAT1 (Homo sapiens, UniProt Q08209); test: binding of activated calcineurin to GST-NFAT1(1-415), glutathione-Sepharose collection and Western blotting
[10] = molecular target: dephosphorylation of NFAT4 by calcineurin (Homo sapiens, UniProt Q08209); test: dephosphorylation of HA-NFAT4(1-407)-GFP in HEK-293 cytosolic extracts by calcineurin/calmodulin; format: biochemical; details: wild type 13-mer 100 μM or 400 μM; mutant 400 μM; calcineurin/calmodulin 100 nM to 900 nM
Protocol: as §1

[11] = molecular target: T4, dephosphorylation of NFAT by calcineurin; test: in vitro dephosphorylation of NFAT1 in C1.7W2 T cell lysates by recombinant calcineurin; format: biochemical; details: 500 nM calcineurin, 600 nM calmodulin, 30 minutes at 30° C.; INCA2 at micromolar concentrations
[12] = molecular target: T2, calcineurin; test: calcineurin phosphatase assay with phosphorylated RII peptide, Malachite green detection; format: biochemical; details: 100 μM INCA compound or 100 μM VIVIT peptide; 6.8 nM calcineurin, 15 min at 25° C.
[13] = molecular target: calcineurin binding to NFAT1 (Homo sapiens, UniProt Q08209); test: 125I-calcineurin binding to GST-NFAT1(1-400) immobilized on glutathione-Sepharose beads; details: at concentrations up to 100 μM
[14] = test system: NFAT-dependent reporter gene (3×NFAT-Luc) in Jurkat cells; test: 3×NFAT-Luc luciferase reporter in transfected Jurkat cells; format: cell-based, human; details: GFP fusion expressed in Jurkat cells; PMA and ionomycin 6 hours
[15] = peptide concentrations in the range from 16 μM to 400 μM, calcineurin 200 nM, calmodulin 600 nM, 30 min at 30° C.

Compound: CC(=O)C(C(C)=O)C1=C(Cl)C(=O)C(=O)c2c(C(=O)c3ccccc3)coc21 [INCA1]
Ki [1]: 500 to 2000 nM
displacement of OG-VIVIT from calcineurin [1]: complete
IC50 [1]: 1000 nM
binding to calcineurin in the absence of VIVIT peptide [2]: direct molecular interaction

Compound: O=P([O-])([O-])OP(=O)([O-])[O-].[Na+].[Na+].[Na+].[Na+] [sodium pyrophosphate, reference compound]
inhibition of dephosphorylation of GST-Tau protein by control inhibitors ([3]; sodium pyrophosphate 10 mM, CsA/cyclophilin […] μM/5 μM): efficiently inhibited
dephosphorylation of NFAT by calcineurin in vitro [11]: no dephosphorylation
inhibition of dephosphorylation of RIIα protein by control inhibitors ([4]; sodium pyrophosphate 20 mM, CsA/cyclophilin […] μM/5 μM, FK506/FKBP12 4 μM/4 μM): efficiently inhibited

Compound: GFP-SPRIEIT: GFP-SPRIEIT fusion protein, expression vector previously described (Aramburu et al 1998)
block of induced luciferase expression, endogenous NFAT [14]: partially blocked

Further lines, with some results ahead:

inhibition of dephosphorylation of GST-Tau protein by calcineurin ([3]; peptide 20 μM and 100 μM, calcineurin 200 nM, 90 min at 30° C.): not inhibited
inhibition at 500 µM ([3]; read-out: inhibition of dephosphorylation of GST-Tau protein by calcineurin, peptide 500 μM): 10%
inhibition of dephosphorylation of RIIα protein ([4]; peptide 20 μM and 100 μM, calcineurin 200 nM, 45 min at 30° C.): did not inhibit
inhibition at 500 µM ([4]; peptide 500 μM): 18%
inhibition of dephosphorylation of NFAT1 ([6]; 500 μM peptide): fully inhibited
inhibition of dephosphorylation of NFAT1 by calcineurin in vitro [6, 15]: inhibited
Compound: CC[C@H](C)[C@H](NC(=O)[C@H](CCCNC(=N)N)NC(=O)[C@@H]1CCCN1C(=O)[C@H](CO)NC(=O)[C@@H]1CCCN1C(=O)CNC(=O)[C@H](CO)NC(=O)[C@H](C)NC(=O)CNC(=O)[C@H](C)NC(=O)[C@@H]1CCCN1C(=O)[C@@H](N)CCCCN)C(=O)N[C@@H](CCC(=O)O)C(=O)N[C@H](C(=O)N[C@H](C(=O)N1CCC[C@H]1C(=O)N[C@@H](CO)C(=O)N[C@@H](Cc1c[nH]cn1)C(=O)N[C@@H](CCC(=O)O)C(=O)N[C@@H](CC(C)C)C(=O)N[C@@H](CCSC)C(=O)N[C@@H](CCC(N)=O)C(=O)N[C@@H](C)C(=O)NCC(=O)NCC(=O)N[C@@H](Cc1ccc(O)cc1)C(=O)O)[C@@H](C)O)[C@@H](C)CC [wild type 26-mer peptide]
inhibition of dephosphorylation of the RII peptide by calcineurin [5]: Neither of the SPRIEITPS peptides inhibited

inhibition of NFAT dephosphorylation [7]: effective
inhibition of dephosphorylation of HA-NFAT1(1-460)-GFP [8]: inhibited dephosphorylation
inhibition of the binding of activated calcineurin to GST-NFAT1 ([9]; 200 nM calcineurin, 600 nM calmodulin, 2 mM CaCl2, peptide amounts as in FIG. 5A): inhibited
inhibition of dephosphorylation of HA-NFAT4(1-407)-GFP [10]: inhibited dephosphorylation
inhibition of dephosphorylation of NFAT1 by calcineurin in vitro [6, 15]: inhibited
Compound: CC[C@H](C)[C@H](NC(=O)[C@H](CCCNC(=N)N)NC(=O)[C@@H]1CCCN1C(=O)[C@H](CO)NC(=O)[C@@H]1CCCN1C(=O)CNC(=O)[C@@H](N)CO)C(=O)N[C@@H](CCC(=O)O)C(=O)N[C@H](C(=O)N[C@H](C(=O)N1CCC[C@H]1C(=O)N[C@@H](CO)C(=O)N[C@@H](Cc1c[nH]cn1)C(=O)O)[C@@H](C)O)[C@@H](C)CC [wild type 13-mer peptide]
inhibition of dephosphorylation of the RII peptide by calcineurin [5]: Neither of the SPRIEITPS peptides inhibited

Ki [1]: 100 to 500 nM
displacement of OG-VIVIT from calcineurin [1]: complete
IC50 [1]: 3000 nM
dephosphorylation of NFAT by calcineurin in vitro [11]: blocked
binding to calcineurin in the absence of VIVIT peptide [2]: direct molecular interaction
release of free phosphate from RII phosphopeptide [12]: not affected
Compound: O=C1C(Cl)=C(Cl)C(=NS(=O)(=O)c2ccccc2)c2ccccc21 [INCA2]

inhibition of the NFAT1-calcineurin interaction [13]: did not inhibit
inhibition of dephosphorylation of HA-NFAT1(1-460)-GFP [8]: little or no inhibition
inhibition of calcineurin binding to GST-NFAT1 ([9]; peptide 100 μM): did not inhibit
inhibition of dephosphorylation of HA-NFAT4(1-407)-GFP [10]: little or no inhibition
inhibition of dephosphorylation of NFAT1 by calcineurin in vitro ([6]; only at concentrations above 400 μM): only marginally inhibitory
Compound: CM2 mutant 26-mer peptide: 26-mer control peptide with R112 to A, E114 to A, T116 to A substitutions and appended tyrosine (KPAGASGPSPAIAIAPSHELMQAGGY) [reference compound]
